Test results taken from US20240158348A1, “HERBICIDAL CYCLIC AMIDES N-SUBSTITUTED WITH A HALOALKYLSULFONYLANILIDE GROUP” (FMC Corporation, priority 2021, published 2024).

Legend:
corn (Zea mays) [1] = assay: Test C preemergence, corn; assay type: in vivo; details: 0 is no effect, 100 is complete control
Method in brief: (§1)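 Pre: soil sprayed at seeding. Post: seedlings treated at 1–2 leaves (2–10 cm). Vehicle non-phytotoxic solvent mix with surfactant; loam–sand medium; greenhouse; visual injury read at 10 or 12 days, scale 0–100.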

[2] = test system: galium (catchweed bedstraw, Galium aparine); assay: Test C postemergence, galium; assay type: in vivo
[3] = test system: pigweed, palmer (palmer amaranth, Amaranthus palmeri); assay: Test C preemergence, palmer amaranth; assay type: in vivo; details: 0 is no effect, 100 is complete control
Method in brief: (§2)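 Visual injury rating, 0 (no effect) to 100 (complete control), versus untreated controls after 10 or 12 days in the greenhouse. Compounds were formulated in non-phytotoxic solvent plus surfactant and applied either as a directed soil spray at sowing or onto emerged one- to two-leaf plants.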

[4] = test system: ragweed (common ragweed, Ambrosia artemisiifolia); assay: Test C postemergence, ragweed; assay type: in vivo
Method in brief: as §2

[5] = test system: pigweed, palmer (palmer amaranth, Amaranthus palmeri); assay: Test C postemergence, palmer amaranth; assay type: in vivo
Method in brief: as §2

[6] = test system: wheat (Triticum aestivum); assay: Test C postemergence, wheat; assay type: in vivo
Method in brief: as §2

[7] = test system: goosegrass (Eleusine indica); assay: Test C postemergence, goosegrass; assay type: in vivo
Method in brief: as §2

[8] = test system: wheat (Triticum aestivum); assay: Test C preemergence, wheat; assay type: in vivo; details: 0 is no effect, 100 is complete control
[9] = test system: foxtail, giant (giant foxtail, Setaria faberi); assay: Test C postemergence, giant foxtail; assay type: in vivo
kochia (Bassia scoparia) [10] = assay: Test C preemergence, kochia; assay type: in vivo; details: 0 is no effect, 100 is complete control
Method in brief: as §2

[11] = test system: goosegrass (Eleusine indica); assay: Test C preemergence, goosegrass; assay type: in vivo; details: 0 is no effect, 100 is complete control
Method in brief: as §1

[12] = test system: horseweed (Erigeron canadensis); assay: Test C postemergence, horseweed; assay type: in vivo
Method in brief: as §2

[13] = test system: oat, wild (wild oat, Avena fatua); assay: Test C postemergence, wild oat; assay type: in vivo
[14] = test system: sedge, umbrella (small-flower umbrella sedge, Cyperus difformis); assay: Test D flooded paddy test, umbrella sedge; assay type: in vivo; parameters: key: 0 = no effect, 100 = complete control; details: 250 g ai/ha, Flood; applied to paddy water at 2-leaf stage; visual rating after 13 days; scale 0 (no effect) to 100 (complete control)
Method in brief: (§3)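 2-leaf plants; flood 3 cm over soil; cpd into paddy water; depth maintained; greenhouse 13 d; visual rating vs controls, 0 = no effect, 100 = complete control; dash = no result.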

[15] = test system: blackgrass (Alopecurus myosuroides); assay: Test C postemergence, blackgrass; assay type: in vivo; details: 31 g ai/ha Postemergence; visual injury, 0 to 100 scale (0 no effect, 100 complete control)
Method in brief: as §2

[16] = test system: ducksalad (Heteranthera limosa); assay: Test D flooded paddy test, ducksalad; assay type: in vivo; parameters: key: 0 = no effect, 100 = complete control; details: 250 g ai/ha, Flood; applied to paddy water at 2-leaf stage; visual rating after 13 days; scale 0 (no effect) to 100 (complete control)
Method in brief: as §3

[17] = test system: ragweed (common ragweed, Ambrosia artemisiifolia); assay: Test C preemergence, ragweed; assay type: in vivo; details: 0 is no effect, 100 is complete control
Method in brief: as §1

[18] = test system: ryegrass, Italian (Italian ryegrass, Lolium multiflorum); assay: Test C preemergence, Italian ryegrass; assay type: in vivo; details: 0 is no effect, 100 is complete control
Method in brief: as §2

[19] = test system: ryegrass, Italian (Italian ryegrass, Lolium multiflorum); assay: Test C postemergence, Italian ryegrass; assay type: in vivo
Method in brief: as §2

soybean (Glycine max) [20] = assay: Test C postemergence, soybean; assay type: in vivo
corn (Zea mays) [21] = assay: Test C postemergence, corn; assay type: in vivo
kochia (Bassia scoparia) [22] = assay: Test C postemergence, kochia; assay type: in vivo
Method in brief: as §2

[23] = test system: barnyardgrass (Echinochloa crusgalli); assay: Test D flooded paddy test, barnyardgrass; assay type: in vivo; parameters: key: 0 = no effect, 100 = complete control; details: 250 g ai/ha, Flood; applied to paddy water at 2-leaf stage; visual rating after 13 days; scale 0 (no effect) to 100 (complete control)
Method in brief: as §3

[24] = test system: foxtail, giant (giant foxtail, Setaria faberi); assay: Test C preemergence, giant foxtail; assay type: in vivo; details: 0 is no effect, 100 is complete control
Method in brief: as §2

[25] = test system: oat, wild (wild oat, Avena fatua); assay: Test C preemergence, wild oat; assay type: in vivo; details: 0 is no effect, 100 is complete control
Method in brief: as §2

soybean (Glycine max) [26] = assay: Test C preemergence, soybean; assay type: in vivo; details: 0 is no effect, 100 is complete control
Method in brief: as §2

[27] = test system: blackgrass (Alopecurus myosuroides); assay: Test C postemergence, blackgrass; assay type: in vivo; details: 125 g ai/ha Postemergence; 0 is no effect, 100 is complete control
rice (Oryza sativa) = assay: Test D flooded paddy test, rice; assay type: in vivo; parameters: key: 0 = no effect, 100 = complete control; details: 250 g ai/ha, Flood; applied to paddy water at 2-leaf stage; visual rating after 13 days; scale 0 (no effect) to 100 (complete control)
Method in brief: as §3

[28] = 31 g ai/ha Postemergence, visual injury, 0 to 100 scale (0 no effect, 100 complete control)
[29] = 125 g ai/ha Postemergence, 0 is no effect, 100 is complete control

In the case of `Cc1cc(C)c(N2CC/C(=N\O)C2=O)cc1NS(=O)(=O)C(F)(F)F` [Compound 10, 1,1,1-trifluoro-N-[5-[3-(hydroxyimino)-2-oxo-1-pyrrolidinyl]-2,4-dimethylphenyl]methanesulfonamide], the “Plant response rating (0 to 100 scale), Corn” value (corn (Zea mays) [1]; 31 g ai/ha Preemergence) is reported as 30, the “Plant response rating (0 to 100 scale), Corn” value (corn (Zea mays) [1]; 125 g ai/ha Preemergence) is reported as 90 and the “Galium plant response rating” value [2, 28] is reported as 100. The “Plant response rating (0 to 100 scale), Galium” value [2, 29] was 100, the “Plant response rating (0 to 100 scale), Pigweed, Palmer” value ([3]; 31 g ai/ha Preemergence) was 50 and the “Plant response rating (0 to 100 scale), Pigweed, Palmer” value ([3]; 125 g ai/ha Preemergence) was 100. For the same compound, the “Ragweed plant response rating” value [4, 28] was 50, the “Plant response rating (0 to 100 scale), Ragweed” value [4, 29] was 50 and the “Pigweed, Palmer plant response rating” value [5, 28] was 60. For the same compound, the “Plant response rating (0 to 100 scale), Pigweed, Palmer” value [5, 29] was 90, the “Wheat plant response rating” value [6, 28] was 80 and the “Plant response rating (0 to 100 scale), Wheat” value [6, 29] was 80. For the same compound, the “Goosegrass plant response rating” value [7, 28] was 90, the “Plant response rating (0 to 100 scale), Goosegrass” value [7, 29] was 90 and the “Plant response rating (0 to 100 scale), Wheat” value ([8]; 31 g ai/ha Preemergence) was 90. For the same compound, the “Plant response rating (0 to 100 scale), Wheat” value ([8]; 125 g ai/ha Preemergence) was 100, the “Foxtail, Giant plant response rating” value [9, 28] was 40 and the “Plant response rating (0 to 100 scale), Foxtail, Giant” value [9, 29] was 90. The “Plant response rating (0 to 100 scale), Kochia” value (kochia (Bassia scoparia) [10]; 31 g ai/ha Preemergence) was 90, the “Plant response rating (0 to 100 scale), Kochia” value (kochia (Bassia scoparia) [10]; 125 g ai/ha Preemergence) was 100 and the “Plant response rating (0 to 100 scale), Goosegrass” value ([11]; 31 g ai/ha Preemergence) was 80. The “Plant response rating (0 to 100 scale), Goosegrass” value ([11]; 125 g ai/ha Preemergence) was 100, the “Horseweed plant response rating” value [12, 28] was 80 and the “Plant response rating (0 to 100 scale), Horseweed” value [12, 29] was 90. For the same compound, the “Oat, Wild plant response rating” value [13, 28] was 80, the “Plant response rating (0 to 100 scale), Oat, Wild” value [13, 29] was 80 and the “Plant response rating, Sedge, Umbrella” value [14] was 80. For the same compound, the “Blackgrass plant response rating” value [15] was 60, the “Plant response rating, Ducksalad” value [16] was 90 and the “Plant response rating (0 to 100 scale), Ragweed” value ([17]; 31 g ai/ha Preemergence) was 0. The “Plant response rating (0 to 100 scale), Ragweed” value ([17]; 125 g ai/ha Preemergence) was 30, the “Plant response rating (0 to 100 scale), Ryegrass, Italian” value ([18]; 31 g ai/ha Preemergence) was 50 and the “Plant response rating (0 to 100 scale), Ryegrass, Italian” value ([18]; 125 g ai/ha Preemergence) was 100. For the same compound, the “Ryegrass, Italian plant response rating” value [19, 28] was 80, the “Plant response rating (0 to 100 scale), Ryegrass, Italian” value [19, 29] was 80 and the “Soybean plant response rating” value (soybean (Glycine max) [20]; [28]) was 80. For the same compound, the “Plant response rating (0 to 100 scale), Soybean” value (soybean (Glycine max) [20]; [29]) was 80, the “Corn plant response rating” value (corn (Zea mays) [21]; [28]) was 90 and the “Plant response rating (0 to 100 scale), Corn” value (corn (Zea mays) [21]; [29]) was 90. For the same compound, the “Kochia plant response rating” value (kochia (Bassia scoparia) [22]; [28]) was 60, the “Plant response rating (0 to 100 scale), Kochia” value (kochia (Bassia scoparia) [22]; [29]) was 90 and the melting point was 213 to 216 °C. The “Plant response rating, Barnyardgrass” value [23] was 0, the “Plant response rating (0 to 100 scale), Foxtail, Giant” value ([24]; 31 g ai/ha Preemergence) was 90 and the “Plant response rating (0 to 100 scale), Foxtail, Giant” value ([24]; 125 g ai/ha Preemergence) was 100. The “Plant response rating (0 to 100 scale), Oat, Wild” value ([25]; 31 g ai/ha Preemergence) was 90, the “Plant response rating (0 to 100 scale), Oat, Wild” value ([25]; 125 g ai/ha Preemergence) was 100 and the “Plant response rating (0 to 100 scale), Soybean” value (soybean (Glycine max) [26]; 31 g ai/ha Preemergence) was 60. For the same compound, the “Plant response rating (0 to 100 scale), Soybean” value (soybean (Glycine max) [26]; 125 g ai/ha Preemergence) was 70, the “Plant response rating (0 to 100 scale), Blackgrass” value [27] was 90 and the “Plant response rating, Rice” value (rice (Oryza sativa)) was 0.
